Converted amounts (≈) assume the structure as drawn. Read-outs that look alike come from different tables or passages of the source. Where a SMILES comes first, the peptide text is derived from it. Bridges are numbered along the chain shown (N, C = ends). Where no end group is shown, it is not given here. [ ]: non-standard residue; d: D form. Dab = NCC[C@H](N)C(=O)O
Experiments:
Assay in all cases: microbe, parasite or virus in culture
S. aureus (ATCC 29213) = type: cell-based, Staphylococcus aureus; settings: read-out: Minimum Inhibitory Concentration
Description: (§1) As we were primarily interested in the clinical potential of cathelicidin-PY (1) and its analogues 2–9, cation-adjusted Mueller-Hinton broth (CAMHB) was implemented during our in vitro antimicrobial screening towards bacteria. However, non-cation adjusted Mueller Hinton broth (MHB) was also implemented to evaluate the cation sensitivity of these AMPs. In each medium, compounds 1–9 were subjected to minimum inhibitory concentration (MIC) assays with E. coli (ATCC 25922), P. aeruginosa (SVB-B9), and S. aureus (ATCC 29213), in accordance with CLSI microbroth dilution protocols (Table 1). It is noteworthy, however, that the initial report of cathelicidin-PY’s isolation documented MIC assays performed in Luria Broth (LB). Furthermore, antifungal activity towards C. albicans was investigated.
(§2) Staphylococcus aureus ATCC 29213, Pseudomonas aeruginosa (SVB-B9) (type strain), and Escherichia coli ATCC 25,922 were grown in either non-cation-adjusted or cation-adjusted Mueller Hinton (MH) broth at 37 °C with shaking (200 rpm). MIC assays were performed in technical triplicate in accordance with the CLSI-recommended protocol. All assays were performed independently on three occasions, with the reported MIC defined as the lowest concentration for which agreement was observed consistently for all replicates.

C. albicans (SC5314) = type: cell-based, Candida albicans; settings: read-out: Minimum Inhibitory Concentration
Description: as §1
Antimicrobial susceptibility of Candida albicans SC5314 (type strain) was assessed by broth microdilution in RPMI 1640 media in accordance with the CLSI recommended protocols. All assays were performed independently on three occasions, with the reported MIC defined as the lowest concentration for which agreement was observed consistently for all replicates.

P. aeruginosa (SVB-B9) = type: cell-based, Pseudomonas aeruginosa; settings: for Minimum Inhibitory Concentration: SVB-B9
Description: as §1, §2

| Compound | MIC (S. aureus (ATCC 29213); ATCC 29213) | MIC (C. albicans (SC5314); SC5314) | Minimum Inhibitory Concentration (P. aeruginosa (SVB-B9)) | MIC (S. aureus (ATCC 29213); S. aureus ATCC 29213, non-cation-adjusted Mueller-Hinton broth (MHB), 37 °C, technical triplicate, three independent occasions) | MIC (S. aureus (ATCC 29213); Staphylococcus aureus, ATCC29213, S. aureus ATCC 29213, cation-adjusted Mueller-Hinton broth (CAMHB), 37 °C, technical triplicate, three independent occasions) | MIC (C. albicans (SC5314); Candida albicans, C. albicans SC5314 type strain, RPMI 1640 media, three independent occasions) | MIC (P. aeruginosa (SVB-B9); Pseudomonas aeruginosa, P. aeruginosa SVB-B9 type strain, cation-adjusted Mueller-Hinton broth (CAMHB), 37 °C, technical triplicate, three independent occasions, read-out: Minimum Inhibitory Concentration) |
| --- | --- | --- | --- | --- | --- | --- | --- |
| RKANFLAKLKEKLRTVITSHIDKVLRPQG [Compound 2] | >64 µM | >64 µM | 4 to 8 µM |  |  |  |  |
| CC[C@H](C)[C@H](NC(=O)[C@H](Cc1c[nH]cn1)NC(=O)[C@H](CO)NC(=O)[C@@H](NC(=O)[C@@H](NC(=O)[C@@H](NC(=O)[C@@H](NC(=O)[C@H](CCCNC(=N)N)NC(=O)[C@H](CC(C)C)NC(=O)[C@H](CCCCN)NC(=O)[C@H](CCC(=O)O)NC(=O)[C@H](CCCCN)NC(=O)[C@H](CC(C)C)NC(=O)[C@H](CCCCN)NC(=O)[C@@H]1CCCCNC(=O)CC[C@H](NC(=O)[C@H](CCCCN)NC(=O)[C@@H](N)CCCNC(=N)N)C(=O)N[C@@H](CC(N)=O)C(=O)N[C@@H](Cc2ccccc2)C(=O)N[C@@H](CC(C)C)C(=O)N1)[C@@H](C)O)C(C)C)[C@@H](C)CC)[C@@H](C)O)C(=O)N[C@@H](CC(=O)O)C(=O)N[C@@H](CCCCN)C(=O)N[C@H](C(=O)N[C@@H](CC(C)C)C(=O)N[C@@H](CCCNC(=N)N)C(=O)N1CCC[C@H]1C(=O)N[C@@H](CCC(N)=O)C(=O)NCC(=O)O)C(C)C [Compound 4] (H-RKENFLKKLKEKLRTVITSHIDKVLRPQG-OH; lactam 3-7) | >64 µM | >64 µM |  |  |  |  |  |
| C[C@@H]1[C@H](O)[C@@H](C)/C=C/C=C/C=C/C=C/C=C/C=C/C=C/[C@H](O[C@@H]2O[C@H](C)[C@@H](O)[C@H](N)[C@@H]2O)C[C@@H]2O[C@](O)(C[C@@H](O)C[C@@H](O)[C@H](O)CC[C@@H](O)C[C@@H](O)CC(=O)O[C@H]1C)C[C@H](O)[C@H]2C(=O)O [A, Amphotericin B, reference compound] |  |  |  | >64 µM | > 64 µM | 1 µM (≈ 0.924 µg/mL) | 2 µM (≈ 1.85 µg/mL) |
| CC[C@H](C)[C@H](NC(=O)[C@H](Cc1c[nH]cn1)NC(=O)[C@H](CO)NC(=O)[C@@H](NC(=O)[C@@H](NC(=O)[C@@H](NC(=O)[C@@H](NC(=O)[C@H](CCCNC(=N)N)NC(=O)[C@H](CC(C)C)NC(=O)[C@H](CCCCN)NC(=O)[C@H](CCC(=O)O)NC(=O)[C@H](CCCCN)NC(=O)[C@H](CC(C)C)NC(=O)[C@H](CCCCN)NC(=O)[C@@H]1CCCCNC(=O)C[C@H](NC(=O)[C@H](CCCCN)NC(=O)[C@@H](N)CCCNC(=N)N)C(=O)N[C@@H](CC(N)=O)C(=O)N[C@@H](Cc2ccccc2)C(=O)N[C@@H](CC(C)C)C(=O)N1)[C@@H](C)O)C(C)C)[C@@H](C)CC)[C@@H](C)O)C(=O)N[C@@H](CC(=O)O)C(=O)N[C@@H](CCCCN)C(=O)N[C@H](C(=O)N[C@@H](CC(C)C)C(=O)N[C@@H](CCCNC(=N)N)C(=O)N1CCC[C@H]1C(=O)N[C@@H](CCC(N)=O)C(=O)NCC(=O)O)C(C)C [Compound 5] (H-RKDNFLKKLKEKLRTVITSHIDKVLRPQG-OH; lactam 3-7) | >64 µM | >64 µM |  |  |  |  |  |
| CC[C@H](C)[C@H](NC(=O)[C@H](Cc1c[nH]cn1)NC(=O)[C@H](CO)NC(=O)[C@@H](NC(=O)[C@@H](NC(=O)[C@@H](NC(=O)[C@@H](NC(=O)[C@H](CCCNC(=N)N)NC(=O)[C@H](CC(C)C)NC(=O)[C@H](CCCCN)NC(=O)[C@H](CCC(=O)O)NC(=O)[C@H](CCCCN)NC(=O)[C@H](CC(C)C)NC(=O)[C@H](CCCCN)NC(=O)[C@@H]1CCNC(=O)C[C@H](NC(=O)[C@H](CCCCN)NC(=O)[C@@H](N)CCCNC(=N)N)C(=O)N[C@@H](CC(N)=O)C(=O)N[C@@H](Cc2ccccc2)C(=O)N[C@@H](CC(C)C)C(=O)N1)[C@@H](C)O)C(C)C)[C@@H](C)CC)[C@@H](C)O)C(=O)N[C@@H](CC(=O)O)C(=O)N[C@@H](CCCCN)C(=O)N[C@H](C(=O)N[C@@H](CC(C)C)C(=O)N[C@@H](CCCNC(=N)N)C(=O)N1CCC[C@H]1C(=O)N[C@@H](CCC(N)=O)C(=O)NCC(=O)O)C(C)C [Compound 8] (H-RKDNFL[Dab]KLKEKLRTVITSHIDKVLRPQG-OH; lactam 3-7) | >64 µM | >64 µM | 4 to 8 µM |  |  |  |  |
| CC[C@H](C)[C@@H]1NC(=O)[C@H](Cc2c[nH]cn2)NC(=O)[C@H](CO)NC(=O)[C@H]([C@@H](C)O)NC(=O)[C@H]([C@@H](C)CC)NC(=O)[C@H](C(C)C)NC(=O)[C@H]([C@@H](C)O)NC(=O)[C@H](CCCNC(=N)N)NC(=O)[C@H](CC(C)C)NC(=O)[C@H](CCCCN)NC(=O)[C@H](CCC(=O)O)NC(=O)[C@H](CCCCN)NC(=O)[C@H](CC(C)C)NC(=O)[C@H](CCCCN)NC(=O)[C@@H]2CSSC[C@H](NC(=O)[C@H](CCCCN)NC(=O)[C@H](CCCNC(=N)N)NC(=O)CNC(=O)[C@H](CCC(N)=O)NC(=O)[C@@H]3CCCN3C(=O)[C@H](CCCNC(=N)N)NC(=O)[C@H](CC(C)C)NC(=O)[C@H](C(C)C)NC(=O)[C@H](CCCCN)NC(=O)[C@H](CC(=O)O)NC1=O)C(=O)N[C@@H](CC(N)=O)C(=O)N[C@@H](Cc1ccccc1)C(=O)N[C@@H](CC(C)C)C(=O)N2 [Compound 3] (cyclo(CKLKEKLRTVITSHIDKVLRPQGRKCNFL); disulfide 1-26) | >64 µM | >64 µM |  |  |  |  |  |
| CC[C@H](C)[C@H](NC(=O)[C@H](Cc1c[nH]cn1)NC(=O)[C@H](CO)NC(=O)[C@@H](NC(=O)[C@@H](NC(=O)[C@@H](NC(=O)[C@@H](NC(=O)[C@H](CCCNC(=N)N)NC(=O)[C@H](CC(C)C)NC(=O)[C@H](CCCCN)NC(=O)[C@H](CCC(=O)O)NC(=O)[C@H](CCCCN)NC(=O)[C@H](CC(C)C)NC(=O)[C@H](CCCCN)NC(=O)[C@@H]1CCNC(=O)CC[C@H](NC(=O)[C@H](CCCCN)NC(=O)[C@@H](N)CCCNC(=N)N)C(=O)N[C@@H](CC(N)=O)C(=O)N[C@@H](Cc2ccccc2)C(=O)N[C@@H](CC(C)C)C(=O)N1)[C@@H](C)O)C(C)C)[C@@H](C)CC)[C@@H](C)O)C(=O)N[C@@H](CC(=O)O)C(=O)N[C@@H](CCCCN)C(=O)N[C@H](C(=O)N[C@@H](CC(C)C)C(=O)N[C@@H](CCCNC(=N)N)C(=O)N1CCC[C@H]1C(=O)N[C@@H](CCC(N)=O)C(=O)NCC(=O)O)C(C)C [Compound 9] (H-RKENFL[Dab]KLKEKLRTVITSHIDKVLRPQG-OH; lactam 3-7) | >64 µM | >64 µM |  |  |  |  |  |
| CC[C@H](C)[C@H](NC(=O)[C@H](Cc1c[nH]cn1)NC(=O)[C@H](CO)NC(=O)[C@@H](NC(=O)[C@@H](NC(=O)[C@@H](NC(=O)[C@@H](NC(=O)[C@H](CCCNC(=N)N)NC(=O)[C@H](CC(C)C)NC(=O)[C@H](CCCCN)NC(=O)[C@H](CCC(=O)O)NC(=O)[C@H](CCCCN)NC(=O)[C@H](CC(C)C)NC(=O)[C@H](CCCCN)NC(=O)[C@@H]1CC(=O)NCCCC[C@H](NC(=O)[C@H](CCCCN)NC(=O)[C@@H](N)CCCNC(=N)N)C(=O)N[C@@H](CC(N)=O)C(=O)N[C@@H](Cc2ccccc2)C(=O)N[C@@H](CC(C)C)C(=O)N1)[C@@H](C)O)C(C)C)[C@@H](C)CC)[C@@H](C)O)C(=O)N[C@@H](CC(=O)O)C(=O)N[C@@H](CCCCN)C(=O)N[C@H](C(=O)N[C@@H](CC(C)C)C(=O)N[C@@H](CCCNC(=N)N)C(=O)N1CCC[C@H]1C(=O)N[C@@H](CCC(N)=O)C(=O)NCC(=O)O)C(C)C [Compound 7] (H-RKKNFLDKLKEKLRTVITSHIDKVLRPQG-OH; lactam 3-7) | >64 µM | >64 µM |  |  |  |  |  |

— paper PMC9959817, “Flow-Based Fmoc-SPPS Preparation and SAR Study of Cathelicidin-PY Reveals Selective Antimicrobial Activity” (Molecules, 2023)
